In patent US20070191325A1, “Methods for altering insulin secretion” (priority 2004, published 2007):

Legend:
[1] = tested on: INS-1 cells; experiment: Glucose-induced insulin secretion of INS-1 cells; assay type: cell-based, rat; conditions: INS-1 cells pretreated with 100 nM dexamethasone
Description: Prior to the experiment INS-1 cells were treated in culture with dexamethasone, 100 nM, for 4 h. Cells were washed twice and preincubated in HEPES buffered salt solution containing (in mmol/l): 140 NaCl, 5.6 KCl, 1.2 MgCl2, 2.6 CaCl2, 0.5 glucose, 10 HEPES and 5 g/l bovine serum albumin, pH 7.4 at 37° C. Thereafter cells were incubated for 30 min at 37° C. in fresh solution containing the test substances at the appropriate concentrations. Insulin was measured by radioimmunoassay using rat insulin antiserum (Linco, Biotrend Chemikalien GmbH, Cologne, Germany), I^125-insulin (CIS Diagnostik GmbH, Dreieich, Germany) and rat insulin (Novo Nordisk, Mainz, Germany) as standard or by an Insulin Elisa kit (Mercodia, Uppsala, Sweden).
INS-1 cells (kindly provided by CB Wollheim, University of Geneva, Switzerland) derived from a rat insulinoma were cultured in HEPES-buffered RPMI 1640 supplemented with 10% fetal calf serum (Biochrom, Berlin, Germany), 1 mmol/l HEPES, 1 mmol/l Na pyruvate, 10 μmol/l β-mercaptoethanol (Sigma, Munich, Germany) and antibiotics as described elsewhere (Abel et al., 1996; Asfari et al., 1992). Cells were seeded at a cell density of 2.0-2.5 10^5 cells/ml in 24-well culture plates and cultured for 2 days prior to the experiment. Cells were washed twice with HEPES buffered salt solution containing (in mmol/l): 140 NaCl, 5.6 KCl, 1.2 MgCl2, 2.6 CaCl2, 0.5 glucose, 10 HEPES and 5 g/l bovine serum albumin, pH 7.4. and preincubated for 30 min at 37° C. […] Incubations were stopped on ice, medium removed and frozen at −20° C. until insulin released into the supernatant was measured by radioimmunoassay using rat insulin antiserum (Linco, Biotrend Chemikalien GmbH, Cologne, Germany), I^125-insulin (CIS Diagnostik GmbH, Dreieich, Germany) and rat insulin (Novo Nordisk, Mainz, Germany) as standard or an insulin Elisa kit (Mercodia, Uppsala, Sweden). Insulin content was measured after extraction with acid ethanol (1.5 (v/v) % HCl/75% ethanol) over night at 4° C.

[2] = tested on: Kv1.5 mRNA in INS cells; experiment: Real time PCR of Kv1.5 mRNA in INS-1 cells; assay type: cell-based, rat; conditions: 100 nM dexamethasone, within 4 hours
[3] = tested on: SGK1 protein in INS-1 cells; experiment: Western blotting of SGK1 protein in INS-1 cells; assay type: cell-based, rat
Description: INS-1 cells were treated with 100 nM dexamethasone or vehicle (DMSO) in culture for the indicated periods of time.
Plots were incubated with antibodies against SGK1 (New England Biolabs, Beverly, Mass., USA). Bound antibody was visualized using a second antibody coupled to horse radish peroxidase.
Thereafter, culture medium was removed and cells were lysed in a solution containing 300 mM NaCl, 20 mM Tris HCl, pH 7.4, 1% (v/v) Triton X-100, 1% Sodiumdeoxycholate, 0.1% SDS, 2.5 mM EDTA, 10 μg/ml Pepstatin A, 10 μg/ml Aprotinin and 0.1 mM PMSF. Total cellular protein, 50 μg, quantified by Coomassie Blue G staining (Bradford dye assay, Biorad Laboratories GmbH, Munich, Germany) was subjected to SDS-PAGE (1%), and plotted onto a nitrocellulose membrane (Schleicher and Schuell, Dassel, Germany). Plots were incubated with antibodies against SGK1 (New England Biolabs, Beverly, Mass., USA). Bound antibody was visualized using a second antibody coupled to horse radish peroxidase.

[4] = molecular target: nuclear glucocorticoid receptor (Mus musculus, UniProt P06537); conditions: Lambillotte et al., 1997; cited from earlier work
[5] = tested on: SGK1 transcript levels in INS-1 cells; experiment: Real time PCR of SGK1 mRNA in INS-1 cells; assay type: cell-based, rat; conditions: with 100 nM dexamethasone
[6] = tested on: voltage gated outward current (Kv channels) in INS-1 cells; experiment: Patch clamp measurement of whole cell outward current in INS-1 cells; assay type: cell-based, rat; conditions: for 4-AP sensitive current: INS-1 cells after 4 hours 100 nM dexamethasone; for inhibition of outward current: untreated INS-1 cells
Description: Cells were treated prior to the experiment with 100 nm dexamethasone for 4 h. (2A) whole cell current was induced by 200 ms voltage pulses increasing by 10 mv steps from −70 mv to +50 mv. (2B) Sensitivity to 4-ap (0.1 and 1 mm) and tea (1 and 10 mm) was tested in cells before (black columns) and after dexamethasone treatment (white columns). Voltage pulses of 200 ms duration from −70 to 50 mv were applied. Shown are means±sem for the indicated number of experiments. * denotes significance (p<0.05) to current in control, non treated cells at the same inhibitor concentration. Ins-1 cells were cultured as described before (Abel et al., 1996; Asfari et al., 1992). The external patch clamp solution contained (in mmol/l): 140 NaCl, 5.6 KCl, 1.2 MgCl2, 2.6 CaCl2, 0.5 glucose and 10 HEPES, PH 7.4. The internal solution contained (in mmol/l): 30 KCL, 95 K^+-gluconate, 1 MgCl2, 1.2 NaH2PO4, 4.8 Na2HPO4, 5 Na2ATP, 1 Na3GTP, 5 mmol/l EGTA, PH 7.2. An Epc9 Patch Clamp Amplifier (Heka Electronic, Lambrecht, Germany) Was Used For Current Measurements.
INS-1 cells were cultured for 2-4 days on glass cover slips coated with poly-L-ornithine (10 mg/l Sigma, Munich, Germany) at appropriate cell densities (1.2×10^6 cells/ml). The cover slips were mounted in a bath chamber on the stage of an inverted microscope (IM, Zeiss, Jena, Germany). The cells were kept at room temperature or at 34° C. as indicated for each experiment and superfused with a solution containing (in mmol/l): 140 NaCl, 5.6 KCl, 1.2 MgCl2, 2.6 CaCl2, 0.5 glucose and 10 HEPES, pH 7.4. The patch clamp pipettes (Clark-Medical, Reading, Great Britain) with a resistance of 4-6 MΩ were pulled using a DMZ-universal puller (Zeitz, Augsburg, Germany). They were filled with an internal solution containing (in mmol/l): 30 KCl, 95 K^+-gluconate, 1 MgCl2, 1.2 NaH2PO4, 4.8 Na2HPO4, 5 Na2ATP, 1 Na3GTP, 5 mmol/l EGTA, pH 7.2. An EPC9 patch clamp amplifier (Heka Electronic, Lambrecht, Germany) was used for current measurements. Only stable current measurements, i.e. when currents reached at least 90% of control current after removal of the respective inhibitory drug, were used for analysis.

Chain of nuclear glucocorticoid receptor (P06537 whole entry): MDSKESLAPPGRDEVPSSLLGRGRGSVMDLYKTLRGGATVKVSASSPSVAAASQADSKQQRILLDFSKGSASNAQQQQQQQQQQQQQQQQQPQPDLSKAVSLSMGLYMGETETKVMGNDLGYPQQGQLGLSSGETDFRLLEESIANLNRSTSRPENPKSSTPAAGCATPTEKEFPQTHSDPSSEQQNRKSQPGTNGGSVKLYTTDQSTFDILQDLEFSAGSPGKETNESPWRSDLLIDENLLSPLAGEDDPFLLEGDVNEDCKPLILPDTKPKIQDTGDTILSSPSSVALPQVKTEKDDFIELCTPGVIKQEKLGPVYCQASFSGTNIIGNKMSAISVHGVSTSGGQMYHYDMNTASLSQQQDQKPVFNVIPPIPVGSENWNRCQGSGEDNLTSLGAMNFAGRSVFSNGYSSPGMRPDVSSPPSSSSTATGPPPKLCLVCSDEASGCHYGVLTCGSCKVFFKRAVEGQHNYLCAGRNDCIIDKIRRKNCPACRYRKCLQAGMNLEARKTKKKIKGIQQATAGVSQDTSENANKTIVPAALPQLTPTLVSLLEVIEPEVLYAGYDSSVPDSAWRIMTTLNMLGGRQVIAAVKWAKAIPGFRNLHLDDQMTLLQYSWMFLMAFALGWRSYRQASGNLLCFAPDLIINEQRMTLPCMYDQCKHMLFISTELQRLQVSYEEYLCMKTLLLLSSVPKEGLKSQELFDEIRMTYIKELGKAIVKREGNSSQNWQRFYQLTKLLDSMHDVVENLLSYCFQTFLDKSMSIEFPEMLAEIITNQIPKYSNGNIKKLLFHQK

Question: Which “effect on dexamethasone-induced inhibition of insulin secretion” value [1] does the source give for CC[N+](CC)(CC)CC [TEA] here?
Answer: Its value is “reversed”.

Question: Which “increase of abundance of Kv1.5 mRNA (factor)” value [2] does the source give for C[C@@H]1C[C@H]2[C@@H]3CCC4=CC(=O)C=C[C@]4(C)[C@@]3(F)[C@@H](O)C[C@]2(C)[C@@]1(O)C(=O)CO [dexamethasone] here?
Answer: Its value is “approx. 10”.

Question: And the inhibition at 0.1 µM ([1]; Rattus norvegicus, INS1)?
Answer: The inhibition at 0.1 µM was 62%.

Question: What about the “time until SGK1 protein / expression appears” value ([3]; 100 nM dexamethasone) of the same molecule?
Answer: Its value is at most 2 h.

Question: For CC#C[C@]1(O)CC[C@H]2[C@@H]3CCC4=CC(=O)CCC4=C3[C@@H](c3ccc(N(C)C)cc3)C[C@@]21C [RU486, mifepristone], which “effect on dexamethasone-induced inhibition of insulin secretion” value [4] is on record?
Answer: The value was “completely abolished”.

Question: What about the “effect on dexamethasone-induced SGK1 expression” value ([3]; RU486 at 1 μmol/l, with 100 nM dexamethasone) of the same molecule?
Answer: Its value is “completely inhibited”.

Question: And the “effect on dexamethasone-induced increase in SGK1 protein abundance” value ([3]; with 100 nM dexamethasone)?
Answer: Its value is “fully reversed”.

Question: What about the “effect on dexamethasone-induced increase of SGK1 mRNA transcript levels” value [5] of the same molecule?
Answer: The value was “completely abrogated”.

Question: Which “effect on dexamethasone-induced inhibition of insulin secretion” value [1] does the source give for Nc1ccncc1 [4-AP] here?
Answer: Its value is “reversed”.

Question: What about the 4-AP sensitive current ([6]; 0.1 mM 4-AP) of the same molecule?
Answer: Its 4-AP sensitive current is 28%.

Question: What about the 4-AP sensitive current ([6]; 1 mM 4-AP) of the same molecule?
Answer: The 4-AP sensitive current was 40%.

Question: And the “inhibition of outward current” value ([6]; 0.1 mM 4-AP)?
Answer: Its value is 10%.

Question: What about the “inhibition of outward current” value ([6]; 1 mM 4-AP) of the same molecule?
Answer: Its value is 28%.
